Data: patent US9920061B2, “Imidazo[1,5-A]pyrimidinyl carboxamide compounds and their use in the treatment of medical disorders” (Lysosomal Therapeutics Inc., priority 2016, dated 2018)
Values after ≈ are worked out from the molar mass of the structure shown.

What was measured:
[1] = biological target: T1, glucocerebrosidase (Gcase) (Homo sapiens, UniProt P04062); test: Glucocerebrosidase (Gcase) activation assay, 4-methylumbelliferyl-beta-D-glucopyranoside substrate, with saposin C; type: biochemical; details: for activation at 0.1 µM: 0.1 μM test compound, read-out: Percent Gcase Activation 0.1 μM Test Compound; for activation at 1 µM: 1 μM test compound, read-out: Percent Gcase Activation 1 μM Test Compound
T1 sequence (P04062 40-536): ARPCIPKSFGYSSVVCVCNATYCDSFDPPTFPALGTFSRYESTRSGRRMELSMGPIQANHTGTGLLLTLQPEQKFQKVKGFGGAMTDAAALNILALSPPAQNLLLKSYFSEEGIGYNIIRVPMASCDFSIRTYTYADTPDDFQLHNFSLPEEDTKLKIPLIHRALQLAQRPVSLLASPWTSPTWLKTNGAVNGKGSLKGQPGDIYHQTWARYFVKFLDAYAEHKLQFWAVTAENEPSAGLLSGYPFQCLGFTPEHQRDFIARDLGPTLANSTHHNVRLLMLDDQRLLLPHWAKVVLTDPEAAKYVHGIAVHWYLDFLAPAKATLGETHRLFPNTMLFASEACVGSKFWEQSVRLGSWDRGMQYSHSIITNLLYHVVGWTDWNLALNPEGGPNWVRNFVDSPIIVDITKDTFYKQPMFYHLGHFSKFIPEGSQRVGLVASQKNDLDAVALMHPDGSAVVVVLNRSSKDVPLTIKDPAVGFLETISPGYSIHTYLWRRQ
Description: The ability of exemplary compounds to activate glucocerebrosidase (Gcase) was measured.
A 484 μL aliquot of a 1.0 mg/mL solution of phosphatidylserine (PS) (Sigma P7769) in chloroform was evaporated under a stream of nitrogen for 1 hour. The lipid film was dissolved over 4 minutes of vigorous vortexing in 40 mL of 176 mM K2HPO4/50 mM citric acid (pH 4.7) containing 7.5 μL of triton X-100, resulting in a mixed micellar preparation with a composition of 0.32 mM triton and 0.37 mol % PS. 4-Methylumbelliferyl-beta-D-glucopyranoside (ACROS-337025000) was dissolved in the micellar solution to a final concentration of 2 mM for use as the reaction substrate.
Test compounds were diluted to the desired concentrations with dimethylsulfoxide (DMSO) from 10 mM stocks, and 0.41 μL of the DMSO compound mixture was added to 100 μL of micellar solution containing 10 nM GCase and 100 nM saposin C (Enzo ALX-201-262-C050). Pre-incubation was allowed to occur for 30 minutes at room temperature, after which the reaction was initiated by combining 25 μL of substrate solution with 25 μL of compound/GCase/saposin mixture. The reaction proceeded for 15 minutes at room temperature and was stopped by adding 150 μL of 1M glycine, pH 12.5. The endpoint of the reaction was monitored by measuring fluorescence intensity (excitation: 365 nm; emission: 440 nm) on a SpectraMax i3 instrument (Molecular Devices). Test compounds were screened at 1.0 and 0.1 μM final concentration, and subsequent 8-point dose response curves were obtained using 3-fold dilutions from a maximum final concentration of […].

[2] = Compound solubility in water; type: physicochemical

| SMILES | activation at 0.1 µM [1] | activation at 1 µM [1] | solubility [2] |
| --- | --- | --- | --- |
| Cc1cc(NC2CC2)nc2c(C(=O)NC(c3ccc(F)cc3)C(F)(F)F)ncn12 (stereo not drawn) [III-91] | > 20% | > 60% | 0.8 µg/mL (≈ 1.96 µM) |
| Cc1cc(N2CCCC(F)(F)C2)nc2c(C(=O)NC(C)(C)C3CC3)ncn12 [III-92] | 10 to 20% | > 60% | 9.6 µg/mL (≈ 25.4 µM) |
| Cc1cc(-c2ccncc2)nc2c(C(=O)NC(C)(C)C3CC3)ncn12 [III-93] | < 10% | < 30% | 18.8 µg/mL (≈ 56.1 µM) |
| Cc1cc(-c2cccc(F)c2)nc2c(C(=O)N[C@H](C)C3CC3)ncn12 [III-94] | 10 to 20% | > 60% | 8.4 µg/mL (≈ 24.8 µM) |
| Cc1cc(-c2ncccn2)nc2c(C(=O)NC(C)(C)C3CC3)ncn12 [III-95] | < 10% | < 30% | 6.4 µg/mL (≈ 19 µM) |
| Cc1cc(-c2ccccn2)nc2c(C(=O)N[C@H]3CC[C@H](OCC(C)C)CC3)ncn12 [III-96] | < 10% | 30 to 60% | 6.6 µg/mL (≈ 16.2 µM) |
| COc1cncc(-c2cc(C)n3cnc(C(=O)N[C@@H](C)C4CC4)c3n2)c1 [III-97] | < 10% | 30 to 60% | 17.3 µg/mL (≈ 49.2 µM) |
| COc1cccc(-c2cc(C)n3cnc(C(=O)N[C@@H](C)C4CC4)c3n2)n1 [III-98] | 10 to 20% | > 60% | 5.2 µg/mL (≈ 14.8 µM) |
| COc1cc(-c2cc(C)n3cnc(C(=O)N[C@@H](C)C4CC4)c3n2)ccn1 [III-99] | < 10% | < 30% | 25.6 µg/mL (≈ 72.8 µM) |
| COc1ccnc(-c2cc(C)n3cnc(C(=O)NC(C)C4CC4)c3n2)c1 (stereo not drawn) [III-100] | < 10% | 30 to 60% | 7.2 µg/mL (≈ 20.5 µM) |
| COCCOc1cccc(-c2cc(C)n3cnc(C(=O)N[C@@H](C)C4CC4)c3n2)c1 [III-101] | 10 to 20% | > 60% | 16 µg/mL (≈ 40.6 µM) |
| Cc1cc(C)n2cnc(C(=O)N[C@@H](C)C3CC4(CCC4)C3)c2n1 [III-102] | < 10% | > 60% | 12.1 µg/mL (≈ 38.7 µM) |
| Cc1cc(-c2cccc(Cl)n2)nc2c(C(=O)N[C@@H](C)C3CC3)ncn12 [III-103] | < 10% | > 60% | 3.8 µg/mL (≈ 10.7 µM) |
| Cc1cc(-c2cc(Cl)ccn2)nc2c(C(=O)N[C@@H](C)C3CC3)ncn12 [III-104] | 10 to 20% | > 60% | 8 µg/mL (≈ 22.5 µM) |
| Cc1cc(-c2cncc(F)c2)nc2c(C(=O)N[C@@H](C)C3CC3)ncn12 [III-105] | < 10% | 30 to 60% | 24.9 µg/mL (≈ 73.4 µM) |
| Cc1cc(-c2ccnc(Cl)c2)nc2c(C(=O)N[C@@H](C)C3CC3)ncn12 [III-106] | < 10% | 30 to 60% | 12.8 µg/mL (≈ 36 µM) |
| Cc1cc(-c2cnc(Cl)c(F)c2)nc2c(C(=O)N[C@@H](C)C3CC3)ncn12 [III-107] | < 10% | 30 to 60% | 1.9 µg/mL (≈ 5.08 µM) |
| Cc1cc(-c2ccc(F)c(Cl)n2)nc2c(C(=O)N[C@@H](C)C3CC3)ncn12 [III-108] | < 10% | 30 to 60% | 14.5 µg/mL (≈ 38.8 µM) |
| Cc1cc(-c2cccc(F)c2)nc2c(C(=O)NC(C)(C)C3CC3)ncn12 [III-109] | > 20% | > 60% | 1.1 µg/mL (≈ 3.12 µM) |
| Cc1cc(-c2cccc(Cl)c2)nc2c(C(=O)N[C@@H](C)C3CC3)ncn12 [III-110] | > 20% | > 60% | 3.6 µg/mL (≈ 10.1 µM) |
| Cc1cc(-c2cc(F)cc(F)c2)nc2c(C(=O)N[C@@H](C)C3CC3)ncn12 [III-111] | > 20% | > 60% | 1.3 µg/mL (≈ 3.65 µM) |
| Cc1cc(-c2cc(F)ccc2F)nc2c(C(=O)N[C@@H](C)C3CC3)ncn12 [III-112] | > 20% | > 60% | 5.5 µg/mL (≈ 15.4 µM) |
| CCc1cc(-c2cccc(F)c2)nc2c(C(=O)N[C@@H](C)C3CC3)ncn12 [III-113] | > 20% | > 60% | 1.7 µg/mL (≈ 4.82 µM) |

| SMILES | activation at 0.1 µM [1] | activation at 1 µM [1] | solubility [2] |
| --- | --- | --- | --- |
| Cc1cc(N2CCCC(F)(F)C2)nc2c(C(=O)N[C@@H](C)C3CC3)ncn12 [III-114] | 10 to 20% | > 60% | 26 µg/mL (≈ 71.5 µM) |
| Cc1cc(N2CCC(F)(F)CC2)nc2c(C(=O)N[C@@H](C)C3CC3)ncn12 [III-115] | < 10% | < 30% | 20.5 µg/mL (≈ 56.4 µM) |
| COCc1cc(-c2cc(F)cc(F)c2)nc2c(C(=O)N[C@@H](C)C3CC3)ncn12 [III-116] | 10 to 20% | > 60% | 0.6 µg/mL (≈ 1.55 µM) |
| Cc1cc(-c2ncc[nH]2)nc2c(C(=O)NC(C)(C)C3CC3)ncn12 [III-117] | < 10% | < 30% | 20.5 µg/mL (≈ 63.2 µM) |
| Cc1cc(N2CCC(F)(F)CC2)nc2c(C(=O)NC(C)(C)C3CC3)ncn12 [III-118] | < 10% | 30 to 60% | 9.7 µg/mL (≈ 25.7 µM) |
| Cc1cc(Oc2cccc(F)c2)nc2c(C(=O)N[C@@H](C)C3CC3)ncn12 [III-119] | < 10% | 30 to 60% | 8.8 µg/mL (≈ 24.8 µM) |
| Cc1cc(Oc2ccccc2F)nc2c(C(=O)N[C@@H](C)C3CC3)ncn12 [III-120] | < 10% | 30 to 60% | 27.7 µg/mL (≈ 78.2 µM) |
| Cc1cc(Oc2ccccn2)nc2c(C(=O)N[C@@H](C)C3CC3)ncn12 [III-121] | < 10% | < 30% | 34.9 µg/mL (≈ 103 µM) |
| Cc1cc(Oc2cccnc2)nc2c(C(=O)N[C@@H](C)C3CC3)ncn12 [III-122] | < 10% | < 30% | 32.8 µg/mL (≈ 97.2 µM) |
| Cc1cc(Oc2ccncc2)nc2c(C(=O)N[C@@H](C)C3CC3)ncn12 [III-123] | < 10% | < 30% | 29.6 µg/mL (≈ 87.7 µM) |
| Cc1cc(-c2cccc(F)c2)nc2c(C(=O)NC(C)(C)C)ncn12 [III-124] | > 20% | > 60% | 3.4 µg/mL (≈ 10.4 µM) |
| Cc1cc(-c2cc(F)cc(F)c2)nc2c(C(=O)NC(C)(C)C)ncn12 [III-125] | > 20% | > 60% | 0.2 µg/mL (≈ 0.581 µM) |
| COc1cc(F)cc(-c2cc(C)n3cnc(C(=O)NC(C)(C)C)c3n2)c1 [III-126] | > 20% | > 60% | 0.1 µg/mL (≈ 0.281 µM) |
| COc1cccc(-c2cc(C)n3cnc(C(=O)NC(C)(C)C)c3n2)c1 [III-127] | > 20% | > 60% | 1.4 µg/mL (≈ 4.14 µM) |
| COCCOc1cc(C)n2cnc(C(=O)N[C@@H](C)C3CC3)c2n1 [III-128] | < 10% | < 30% | 34.1 µg/mL (≈ 107 µM) |
| Cc1cc(-c2ccc3ncoc3c2)nc2c(C(=O)N[C@@H](C)C3CC3)ncn12 [III-129] | < 10% | > 60% | 6.1 µg/mL (≈ 16.9 µM) |
| Cc1cc(-c2ccc3ocnc3c2)nc2c(C(=O)N[C@@H](C)C3CC3)ncn12 [III-130] | > 20% | > 60% | 7.7 µg/mL (≈ 21.3 µM) |
| Cc1cc(-c2ccn3ccnc3c2)nc2c(C(=O)N[C@@H](C)C3CC3)ncn12 [III-131] | < 10% | < 30% | 2.8 µg/mL (≈ 7.77 µM) |
| CC[C@H](C)NC(=O)c1ncn2c(C)cc(-c3cccc(F)c3)nc12 [III-132] | 10 to 20% | > 60% | 18.6 µg/mL (≈ 57 µM) |
| Cc1cc(-c2cccc(F)c2)nc2c(C(=O)NC(C3CC3)C3CC3)ncn12 [III-133] | > 20% | > 60% | 1.5 µg/mL (≈ 4.12 µM) |
| Cc1cc(-c2cccc(Cl)c2)nc2c(C(=O)NC(C)(C)C)ncn12 [III-134] | > 20% | > 60% | 2.4 µg/mL (≈ 7 µM) |
| C#CC(C)(C)NC(=O)c1ncn2c(C)cc(-c3cccc(Cl)c3)nc12 [III-135] | > 20% | > 60% | 0.3 µg/mL (≈ 0.85 µM) |
| CCc1cc(N2CCCC(F)(F)C2)nc2c(C(=O)NC(C)(C)C3CC3)ncn12 [III-136] | > 20% | > 60% | 17.2 µg/mL (≈ 43.9 µM) |
